Results published in ChEMBL document CHEMBL4138213, “Synthesis and biological characterization of ubenimex-fluorouracil conjugates for anti-cancer therapy” (Eur J Med Chem, 2018).
pIC50: −log10 of the molar value. The source made the active and inactive calls. The rule behind the calls is not given here.

How the values were obtained:
[1] = molecular target: T1, Aminopeptidase N (Sus scrofa, UniProt P15145); test: Inhibition of porcine kidney CD13 using L-leucine-p-nitroanilide as substrate preincubated for 5 mins followed by substrate addition measured after 30 mins
T1 sequence (P15145 whole entry): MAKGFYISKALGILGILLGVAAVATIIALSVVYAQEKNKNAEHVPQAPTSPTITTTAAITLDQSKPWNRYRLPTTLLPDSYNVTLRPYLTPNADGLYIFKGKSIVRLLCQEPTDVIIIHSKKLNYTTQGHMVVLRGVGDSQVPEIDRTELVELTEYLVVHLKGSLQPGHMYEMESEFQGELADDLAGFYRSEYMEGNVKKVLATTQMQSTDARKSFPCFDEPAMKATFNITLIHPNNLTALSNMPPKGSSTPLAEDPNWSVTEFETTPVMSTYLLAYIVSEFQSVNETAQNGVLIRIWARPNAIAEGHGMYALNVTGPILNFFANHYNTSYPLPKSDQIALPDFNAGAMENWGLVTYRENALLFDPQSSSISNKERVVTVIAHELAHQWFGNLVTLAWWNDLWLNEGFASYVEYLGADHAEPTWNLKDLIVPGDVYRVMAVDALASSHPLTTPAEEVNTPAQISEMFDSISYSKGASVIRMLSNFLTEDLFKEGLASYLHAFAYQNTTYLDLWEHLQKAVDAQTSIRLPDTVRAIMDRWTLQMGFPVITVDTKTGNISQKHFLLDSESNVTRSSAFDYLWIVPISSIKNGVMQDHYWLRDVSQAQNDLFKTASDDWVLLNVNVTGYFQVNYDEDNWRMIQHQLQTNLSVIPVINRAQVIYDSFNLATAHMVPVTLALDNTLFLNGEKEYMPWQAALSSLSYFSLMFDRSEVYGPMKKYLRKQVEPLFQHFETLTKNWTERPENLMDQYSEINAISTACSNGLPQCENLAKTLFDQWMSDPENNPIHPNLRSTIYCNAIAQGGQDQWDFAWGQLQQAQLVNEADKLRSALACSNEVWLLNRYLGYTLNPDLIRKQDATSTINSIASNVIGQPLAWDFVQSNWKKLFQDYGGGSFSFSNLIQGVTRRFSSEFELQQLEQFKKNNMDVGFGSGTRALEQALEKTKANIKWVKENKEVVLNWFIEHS

[2] = test system: PLC-PRF-5; test: Antiproliferative activity against human PLC/PRF/5 cells after 48 hrs by MTT assay; settings: PLC-PRF-5, 48 h
[3] = cells; settings: Homo sapiens, ES-2, 48 h
Description: Antiproliferative activity against human ES2 cells after 48 hrs by MTT assay

[4] = test system: Rattus norvegicus; test: VRT (0 to infinity) in Wistar rat at 80 mg/kg, iv after 0.05 to 24 hrs by HPLC-MS/MS analysis; assay type: ADME, organism-based; settings: in vivo
[5] = test system: PLC-PRF-5; test: Induction of apoptosis in human PLC/PRF/5 cells assessed as necrotic cells at 20 uM after 48 hrs by annexin-V-FITC/propidium iodide staining-based flow cytometric method (reference value: 0.106%); assay type: functional
[6] = Drug level in Wistar rat plasma treated with (5-fluoro-2,4-dioxo-3,4-dihydropyrimidin1(2H)-yl)methyl-2-((S)-2-((2S,3R)-3-amino-2-hydroxy-4-phenylbut-anamido)-4-methylpentanamido)acetate hydrochloride assessed as carboxylesterase-mediated compound formation at 80 mg/kg, iv by HPLC-MS/MS analysis; assay type: ADME, organism-based; settings: in vivo
[7] = test system: HepG2; test: cells; settings: Homo sapiens, HepG2, 48 h
[8] = test system: PLC-PRF-5; test: Induction of apoptosis in human PLC/PRF/5 cells assessed as viable cells at 20 uM in presence of ubenimex after 48 hrs by annexin-V-FITC/propidium iodide staining-based flow cytometric method (reference value: 93.7%); assay type: functional; settings: PLC-PRF-5, 48 h, read-out: Activity
[9] = test system: U-937; test: Antiproliferative activity against human U937 cells in presence of ubenimex after 48 hrs by MTT assay; assay type: functional, cell-based; settings: U-937, 48 h
[10] = test system: PLC-PRF-5; test: Downregulation of CD13 expression in human PLC/PRF/5 cells at 10 uM in presence of ubenimex after 48 hrs by flow cytometric method; assay type: functional, cell-based
[11] = Antiproliferative activity against human H7402 cells after 48 hrs by MTT assay; settings: H7402, 48 h
[12] = cells; settings: Homo sapiens, ES-2, 48 h; remark: listed apart in the source
[13] = test system: U-266; test: Antiproliferative activity against human U266 cells in presence of ubenimex after 48 hrs by MTT assay; assay type: functional, cell-based; settings: U-266, 48 h
[14] = test system: PLC-PRF-5; test: Induction of apoptosis in human PLC/PRF/5 cells assessed as late apoptotic cells at 20 uM in presence of ubenimex after 48 hrs by annexin-V-FITC/propidium iodide staining-based flow cytometric method (reference value: 0.341%); assay type: functional
[15] = Apparent clearance in Wistar rat at 80 mg/kg, iv after 0.05 to 24 hrs by HPLC-MS/MS analysis; assay type: ADME, organism-based; settings: in vivo, read-out: CL(app) (converted)
[16] = Volume of distribution during elimination phase in Wistar rat at 80 mg/kg, iv after 0.05 to 24 hrs by HPLC-MS/MS analysis; assay type: ADME, organism-based; settings: in vivo, read-out: Vz
[17] = test system: A549; test: Antiproliferative activity against human A549 cells after 48 hrs by MTT assay; settings: A549, 48 h
[18] = Cmax in Wistar rat at 80 mg/kg, iv after 0.05 to 24 hrs by HPLC-MS/MS analysis; assay type: ADME, organism-based; design: dose 80 mg/kg, route intravenous; settings: in vivo
[19] = test system: HCT-116; test: cells; settings: Homo sapiens, HCT-116, 48 h
[20] = test system: PLC-PRF-5; test: Induction of apoptosis in human PLC/PRF/5 cells assessed as late apoptotic cells at 20 uM after 48 hrs by annexin-V-FITC/propidium iodide staining-based flow cytometric method (reference value: 0.341%); assay type: functional
[21] = cells; settings: Homo sapiens, H7402, 48 h
[22] = Terminal Half life in Wistar rat at 80 mg/kg, iv after 0.05 to 24 hrs by HPLC-MS/MS analysis; assay type: ADME, organism-based; settings: Wistar, in vivo, read-out: beta t1/2 (converted)
[23] = test system: U-937; test: cells; settings: Homo sapiens, U-937, 48 h
Description: Antiproliferative activity against human U937 cells after 48 hrs by MTT assay

[24] = AUC (0 to infinity) in Wistar rat at 80 mg/kg, iv after 0.05 to 24 hrs by HPLC-MS/MS analysis; assay type: ADME, organism-based; design: dose 80 mg/kg, time infinity, route intravenous; settings: in vivo
[25] = test system: H22; test: Antitumor activity against 5-FU-resistant […] cells xenografted in Kunming mouse at 20 mg/kg, ip after 14 days; assay type: functional, organism-based
[26] = test system: PLC-PRF-5; test: Antiproliferative activity against human PLC/PRF/5 cells in presence of ubenimex after 48 hrs by MTT assay; assay type: functional, cell-based; settings: PLC-PRF-5, 48 h
[27] = test system: PLC-PRF-5; test: Induction of apoptosis in human PLC/PRF/5 cells assessed as necrotic cells at 20 uM in presence of ubenimex after 48 hrs by annexin-V-FITC/propidium iodide staining-based flow cytometric method (reference value: 0.106%); assay type: functional
[28] = test system: PLC-PRF-5; test: Induction of apoptosis in human PLC/PRF/5 cells assessed as early apoptotic cells at 20 uM after 48 hrs by annexin-V-FITC/propidium iodide staining-based flow cytometric method (reference value: 5.82%); assay type: functional
[29] = test system: PLC-PRF-5; test: Downregulation of CD13 expression in human PLC/PRF/5 cells at 10 uM after 48 hrs by flow cytometric method; assay type: functional, cell-based
[30] = MRT (0 to infinity) in Wistar rat at 80 mg/kg, iv after 0.05 to 24 hrs by HPLC-MS/MS analysis; assay type: ADME, organism-based; settings: Wistar, in vivo
[31] = test system: HepG2; test: cells; settings: Homo sapiens, HepG2, 48 h; remark: listed apart in the source
[32] = test system: HCT-116; test: cells; settings: Homo sapiens, HCT-116, 48 h; remark: listed apart in the source
[33] = test system: PLC-PRF-5; test: Induction of apoptosis in human PLC/PRF/5 cells assessed as early apoptotic cells at 20 uM in presence of ubenimex after 48 hrs by annexin-V-FITC/propidium iodide staining-based flow cytometric method (reference value: 5.82%); assay type: functional
[34] = Drug level in human plasma treated with (5-fluoro-2,4-dioxo-3,4-dihydropyrimidin1(2H)-yl)methyl-2-((S)-2-((2S,3R)-3-amino-2-hydroxy-4-phenylbut-anamido)-4-methylpentanamido)acetate hydrochloride at 4 mg/ml after 8 hrs by HPLC method; assay type: ADME, cell-free
[35] = test system: PLC-PRF-5; test: Induction of apoptosis in human PLC/PRF/5 cells assessed as viable cells at 20 uM after 48 hrs by annexin-V-FITC/propidium iodide staining-based flow cytometric method (reference value: 93.7%); assay type: functional; settings: PLC-PRF-5, 48 h, read-out: Activity
[36] = test system: U-266; test: Antiproliferative activity against human U266 cells after 48 hrs by MTT assay; settings: U-266, 48 h

## CC(C)C[C@H](NC(=O)[C@@H](O)[C@H](N)Cc1ccccc1)C(=O)N[C@@H](C)C(=O)OCn1cc(F)c(=O)[nH]c1=O
[1]
  pIC50: 6.77
[2]
  pIC50: 4.62
[3]
  pIC50: 4.60

## CC(C)C[C@H](NC(=O)[C@@H](O)[C@H](N)Cc1ccccc1)C(=O)OCn1cc(F)c(=O)[nH]c1=O
[1]
  pIC50: 5.50
[2]
  pIC50: 4.74
[3]
  pIC50: 4.58

## CC(C)C[C@H](NC(=O)[C@@H](O)[C@H](N)Cc1ccccc1)C(=O)NCCCCCC(=O)OCn1cc(F)c(=O)[nH]c1=O
[1]
  pIC50: 5.74
[2]
  pIC50: 4.22
[3]
  pIC50: 3.98

## O=c1[nH]cc(F)c(=O)[nH]1 [FLUOROURACIL]
[4]
  VRT: 4.205 hr2
[5]
  Activity: 0%
[6]
  Drug metabolism: Metabolite_Detected
[7]
  pIC50: 4.84
[8]
  viability at 20 µM: 64.3%
[9]
  pIC50: 5.02
[10]
  Activity: Active
[11]
  pIC50: 4.66
[12]
  pIC50: 4.43
[13]
  pIC50: 4.36
[14]
  Activity: 2.38%
[15]
  clearance: 98.4 mL/min/kg
[16]
  Vd: 20.1 L/kg
[17]
  pIC50: 4.77
[18]
  Cmax: 3810 ng/mL
[19]
  pIC50: 4.36
[20]
  Activity: 6.8%
[2]
  pIC50: 4.45
[21]
  pIC50: 4.75
[3]
  pIC50: 4.15
[22]
  half-life: 2.35 h
[23]
  pIC50: 4.54
[24]
  AUC(0-inf): 13600 ng·h/mL
[25]
  Activity: inactive
[26]
  pIC50: 4.64
[27]
  Activity: 0%
[28]
  Activity: 20.1%
[29]
  Activity: inactive
[30]
  MRT inf: 2.48 h
[31]
  pIC50: 4.74
[32]
  pIC50: 4.27
[33]
  Activity: 33.3%
[34]
  Drug metabolism: Metabolite_Detected
[35]
  viability at 20 µM: 73.1%
[36]
  pIC50: 4.18
